Reference: ChEMBL document CHEMBL4385611, “Difluoromethylene at the γ-Lactam α-Position Improves 11-Deoxy-8-aza-PGE1 Series EP4 Receptor Binding and Activity: 11-Deoxy-10,10-difluoro-8-aza-PGE1 Analog (KMN-159) as a Potent EP4 Agonist” (J Med Chem, 2019)
pEC50, pIC50, pKi: −log10 of the molar value.

Key:
[1] = biological target: T1, Prostaglandin E2 receptor EP2 subtype (Homo sapiens, UniProt P43116); assay: Agonist activity at human EP2 receptor expressed in HEK293T/17 cells assessed as increase in intracellular cAMP level at 10 uM incubated for 30 mins by ELISA relative to control; format: functional, cell-based
T1 sequence (P43116 whole entry): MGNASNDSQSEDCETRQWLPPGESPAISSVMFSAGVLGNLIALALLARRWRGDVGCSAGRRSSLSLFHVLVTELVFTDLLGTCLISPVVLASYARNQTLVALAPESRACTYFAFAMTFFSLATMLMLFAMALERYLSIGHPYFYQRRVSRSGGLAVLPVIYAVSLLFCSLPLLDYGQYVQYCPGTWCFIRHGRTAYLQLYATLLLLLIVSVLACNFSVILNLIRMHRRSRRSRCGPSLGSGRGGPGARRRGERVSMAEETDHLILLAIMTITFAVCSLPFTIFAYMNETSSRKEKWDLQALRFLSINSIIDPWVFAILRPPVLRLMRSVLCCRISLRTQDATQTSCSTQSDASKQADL

[2] = biological target: Cytochrome P450 3A (Homo sapiens, UniProt P08684+P20815+Q9HB55+P24462); assay: Inhibition of CYP3A in human liver microsomes using midazolam as substrate at 10 uM after 10 mins by HPLC-MS/MS analysis; format: ADME
[3] = Apparent permeability across apical to basolateral side in human Caco2 cells assessed as drug recovery at 5 uM after 120 mins by LC-MS/MS analysis; format: ADME, cell-based; details: Caco-2, read-out: Drug recovery
[4] = Mutagenicity in Salmonella typhimurium TA100 after 96 hrs in presence of rat liver S9 fraction by Ames test; format: toxicity, subcellular; details: salmonella enterica subsp. enterica serovar typhimurium, s9, 96 h
[5] = biological target: Cytochrome P450 2C9 (Homo sapiens, UniProt P11712); assay: Inhibition of CYP2C9 in human liver microsomes using diclofenac as substrate at uM after 10 mins by HPLC-MS/MS analysis; format: ADME
Cytochrome P450 2C9, sequence (P11712 whole entry): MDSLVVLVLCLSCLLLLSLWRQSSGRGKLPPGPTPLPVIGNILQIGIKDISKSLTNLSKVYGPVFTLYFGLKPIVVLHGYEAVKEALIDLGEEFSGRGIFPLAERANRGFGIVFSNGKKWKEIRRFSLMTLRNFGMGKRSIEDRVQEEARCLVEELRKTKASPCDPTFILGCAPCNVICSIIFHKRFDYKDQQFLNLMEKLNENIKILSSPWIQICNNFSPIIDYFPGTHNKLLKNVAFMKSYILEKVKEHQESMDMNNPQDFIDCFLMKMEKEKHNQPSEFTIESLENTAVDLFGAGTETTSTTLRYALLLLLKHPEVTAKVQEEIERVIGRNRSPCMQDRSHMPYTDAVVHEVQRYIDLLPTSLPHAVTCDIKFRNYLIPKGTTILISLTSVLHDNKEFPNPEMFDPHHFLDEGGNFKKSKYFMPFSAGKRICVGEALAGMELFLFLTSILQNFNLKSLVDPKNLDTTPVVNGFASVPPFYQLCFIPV

[6] = n-Octanol-PBS buffer partition coefficient, log D of the compound at 100 uM at pH 7.4 after 1 hr by LC-MS/MS analysis; format: physicochemical
[7] = Protein binding in human plasma at 10 uM after 4 hrs by HPLC-MS/MS-based equilibrium dialysis method; format: ADME, cell-free; details: read-out: PPB (converted)
[8] = biological target: T2, Prostaglandin E2 receptor EP3 subtype (Homo sapiens, UniProt P43115); assay: Displacement of [3H]PGE2 from human recombinant EP3 receptor expressed in HEK293 cell membranes after 120 mins by liquid scintillation counting method
T2 sequence (P43115 whole entry): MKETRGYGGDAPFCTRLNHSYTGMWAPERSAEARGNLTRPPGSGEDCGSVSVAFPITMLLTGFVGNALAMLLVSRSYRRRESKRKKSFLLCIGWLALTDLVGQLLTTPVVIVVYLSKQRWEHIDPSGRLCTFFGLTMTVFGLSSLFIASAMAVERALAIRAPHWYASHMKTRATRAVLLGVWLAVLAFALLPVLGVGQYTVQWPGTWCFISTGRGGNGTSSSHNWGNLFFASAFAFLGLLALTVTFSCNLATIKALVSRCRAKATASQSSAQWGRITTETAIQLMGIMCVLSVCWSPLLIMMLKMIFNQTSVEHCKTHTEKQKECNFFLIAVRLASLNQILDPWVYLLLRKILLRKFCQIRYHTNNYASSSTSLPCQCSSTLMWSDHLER

[9] = biological target: T1, Prostaglandin E2 receptor EP2 subtype; assay: Agonist activity at human EP2 receptor expressed in HEK293T/17 cells assessed as increase in intracellular cAMP level incubated for 30 mins by ELISA; format: functional, cell-based
[10] = biological target: T1, Prostaglandin E2 receptor EP2 subtype; assay: Displacement of [3H]PGE2 from human recombinant EP2 receptor expressed in HEK293 cell membranes after 120 mins by liquid scintillation counting method
[11] = Mutagenicity in Salmonella typhimurium TA1537 after 96 hrs in presence of rat liver S9 fraction by Ames test; format: toxicity, subcellular; details: salmonella enterica subsp. enterica serovar typhimurium, s9, 96 h
[12] = biological target: T3, Cytochrome P450 1A (Homo sapiens, UniProt P04798+P05177); assay: Inhibition of CYP1A in human liver microsomes using phenacetin as substrate at 10 uM after 10 mins by HPLC-MS/MS analysis; format: ADME
T3 sequence (P04798 whole entry): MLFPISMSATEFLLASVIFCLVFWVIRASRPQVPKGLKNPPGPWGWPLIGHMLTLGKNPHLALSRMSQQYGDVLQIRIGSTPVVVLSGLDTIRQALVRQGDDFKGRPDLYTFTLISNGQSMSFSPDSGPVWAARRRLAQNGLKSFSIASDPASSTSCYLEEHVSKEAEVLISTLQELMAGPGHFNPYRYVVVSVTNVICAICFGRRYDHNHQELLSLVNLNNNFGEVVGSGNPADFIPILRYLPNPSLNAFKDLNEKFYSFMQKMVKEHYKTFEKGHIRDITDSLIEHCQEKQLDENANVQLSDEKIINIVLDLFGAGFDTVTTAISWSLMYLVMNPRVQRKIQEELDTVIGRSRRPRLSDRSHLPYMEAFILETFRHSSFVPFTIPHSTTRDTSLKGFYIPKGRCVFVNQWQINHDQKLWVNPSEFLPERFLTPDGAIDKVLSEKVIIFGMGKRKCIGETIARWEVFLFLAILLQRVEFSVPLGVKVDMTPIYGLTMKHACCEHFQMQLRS
T3 sequence (P05177 whole entry): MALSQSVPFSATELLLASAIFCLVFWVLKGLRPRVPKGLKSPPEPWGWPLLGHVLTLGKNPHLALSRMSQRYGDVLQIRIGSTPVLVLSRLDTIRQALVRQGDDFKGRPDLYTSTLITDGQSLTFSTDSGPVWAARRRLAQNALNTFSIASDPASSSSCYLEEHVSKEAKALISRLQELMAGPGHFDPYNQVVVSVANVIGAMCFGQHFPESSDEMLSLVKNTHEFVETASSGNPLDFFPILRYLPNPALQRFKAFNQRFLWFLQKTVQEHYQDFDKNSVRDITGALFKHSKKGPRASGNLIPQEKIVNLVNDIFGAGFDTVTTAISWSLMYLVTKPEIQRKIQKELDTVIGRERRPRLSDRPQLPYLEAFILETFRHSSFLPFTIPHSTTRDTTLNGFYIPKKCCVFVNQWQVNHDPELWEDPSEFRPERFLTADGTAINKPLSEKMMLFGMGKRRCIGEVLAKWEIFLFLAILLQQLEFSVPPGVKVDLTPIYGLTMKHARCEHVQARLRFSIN

[13] = Genotoxicity in Salmonella typhimurium TA1535 at 0.6 to 100 uM after 96 hrs by photometry analysis; format: toxicity; details: salmonella enterica subsp. enterica serovar typhimurium
[14] = Genotoxicity in Salmonella typhimurium TA100 at 0.6 to 100 uM after 96 hrs by photometry analysis; format: toxicity; details: salmonella enterica subsp. enterica serovar typhimurium
[15] = Intrinsic clearance in human hepatocytes at 0.1 uM by HPLC-MS/MS analysis; format: ADME, cell-based, Hepatocyte
[16] = biological target: T4, Prostaglandin E2 receptor EP4 subtype (Homo sapiens, UniProt P35408); assay: Agonist activity at human EP4 receptor expressed in HEK293T/17 cells assessed as increase in GalphaS-mediated CREB activation measured after 6 to 24 hrs by SEAP reporter gene-based chemiluminescence assay; format: functional, cell-based
T4 sequence (P35408 whole entry): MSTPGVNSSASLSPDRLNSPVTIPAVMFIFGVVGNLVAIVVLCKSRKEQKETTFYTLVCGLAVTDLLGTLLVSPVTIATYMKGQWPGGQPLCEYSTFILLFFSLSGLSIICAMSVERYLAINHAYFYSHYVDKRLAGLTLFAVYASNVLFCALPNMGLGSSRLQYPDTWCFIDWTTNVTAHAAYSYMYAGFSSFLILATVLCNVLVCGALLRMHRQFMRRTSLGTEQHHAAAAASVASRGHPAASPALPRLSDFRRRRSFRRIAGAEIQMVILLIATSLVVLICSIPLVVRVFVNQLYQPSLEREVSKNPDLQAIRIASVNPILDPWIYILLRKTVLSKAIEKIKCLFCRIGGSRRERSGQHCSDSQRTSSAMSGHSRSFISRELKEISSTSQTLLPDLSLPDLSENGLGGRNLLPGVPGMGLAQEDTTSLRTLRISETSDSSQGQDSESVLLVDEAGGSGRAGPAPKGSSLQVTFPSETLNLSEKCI

[17] = biological target: Voltage-gated inwardly rectifying potassium channel KCNH2 (Homo sapiens, UniProt Q12809); assay: Inhibition of human ERG expressed in CHOK1 cells assessed as reduction in tail current amplitude by automated patch-clamp method; format: cell-based
Voltage-gated inwardly rectifying potassium channel KCNH2, sequence (Q12809 whole entry): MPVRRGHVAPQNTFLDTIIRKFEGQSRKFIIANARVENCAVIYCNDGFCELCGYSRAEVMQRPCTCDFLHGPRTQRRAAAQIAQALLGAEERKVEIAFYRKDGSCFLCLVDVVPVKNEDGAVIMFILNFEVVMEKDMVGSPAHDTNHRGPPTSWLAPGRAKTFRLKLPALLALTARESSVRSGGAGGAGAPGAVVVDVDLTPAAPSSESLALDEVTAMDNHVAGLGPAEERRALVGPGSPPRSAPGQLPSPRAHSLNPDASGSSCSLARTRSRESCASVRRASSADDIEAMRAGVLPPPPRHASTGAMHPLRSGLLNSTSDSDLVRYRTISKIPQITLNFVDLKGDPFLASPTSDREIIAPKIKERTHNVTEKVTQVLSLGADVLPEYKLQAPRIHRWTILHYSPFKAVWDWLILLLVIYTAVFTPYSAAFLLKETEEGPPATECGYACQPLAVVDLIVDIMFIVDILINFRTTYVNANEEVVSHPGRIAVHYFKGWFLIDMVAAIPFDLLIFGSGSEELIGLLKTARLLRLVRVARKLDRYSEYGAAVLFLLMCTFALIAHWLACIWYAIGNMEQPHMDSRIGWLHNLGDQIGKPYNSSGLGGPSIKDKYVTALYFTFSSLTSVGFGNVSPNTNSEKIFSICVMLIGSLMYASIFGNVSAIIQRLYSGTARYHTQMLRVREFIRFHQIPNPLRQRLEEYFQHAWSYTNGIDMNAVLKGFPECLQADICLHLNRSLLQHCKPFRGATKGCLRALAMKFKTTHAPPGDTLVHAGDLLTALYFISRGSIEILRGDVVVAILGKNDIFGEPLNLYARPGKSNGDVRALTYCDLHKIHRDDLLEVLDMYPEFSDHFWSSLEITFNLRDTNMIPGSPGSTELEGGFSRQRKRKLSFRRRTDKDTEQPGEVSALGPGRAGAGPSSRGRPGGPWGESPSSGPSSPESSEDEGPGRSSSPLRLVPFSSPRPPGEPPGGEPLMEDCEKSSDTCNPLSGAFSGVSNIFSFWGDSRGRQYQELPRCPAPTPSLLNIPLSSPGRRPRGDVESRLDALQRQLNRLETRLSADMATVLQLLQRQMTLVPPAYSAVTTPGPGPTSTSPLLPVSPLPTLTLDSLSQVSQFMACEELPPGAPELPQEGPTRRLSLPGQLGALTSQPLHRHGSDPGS

[18] = Mutagenicity in Salmonella typhimurium TA98 after 96 hrs in presence of rat liver S9 fraction by Ames test; format: toxicity, subcellular; details: salmonella enterica subsp. enterica serovar typhimurium, s9, 96 h
[19] = biological target: T4, Prostaglandin E2 receptor EP4 subtype; assay: Agonist activity at human EP4 receptor expressed in HEK293T/17 cells assessed as increase in intracellular cAMP level incubated for 30 mins by ELISA; format: functional, cell-based
[20] = Half-life in human plasma at 1 uM by HPLC-MS/MS analysis; format: ADME, cell-free
[21] = Intrinsic clearance in human liver microsomes at 0.1 uM by HPLC-MS/MS analysis; format: ADME, Microsome; details: read-out: CLH
[22] = Mutagenicity in Salmonella typhimurium TA98 after 96 hrs in absence of rat liver S9 fraction by Ames test; format: toxicity; details: salmonella enterica subsp. enterica serovar typhimurium, s9, 96 h

SMILES	Activity [1]	inhibition (INH) [2]	recovery at 2 h, 5 µM [3]	Activity [4]	inhibition (INH) [5]	logD at 1 h, 100 µM [6]	fraction unbound at 4 h, 10 µM [7]	pKi [8]	pEC50 [9]	pKi [10]	Activity [11]	inhibition (INH) [12]	Activity [13]	Activity [14]	CLH [15]	pEC50 [16]	pIC50 [17]	Activity [18]	pEC50 [19]	half-life at 1 µM [20]	also measured
CCC#CC[C@H](C)[C@H](O)/C=C/[C@H]1CC(F)(F)C(=O)N1CCCCCCC(=O)O	< 50%	Not Active	94%	Non-Toxic	Not Active	0.11	0.416	6.59	< 5.00	5.30	Non-Toxic	Not Active	Non-Toxic	Non-Toxic	< 8.2 µL/min/10^6 cells	10.06	4.59	Non-Toxic	8.58	> 2 h	microsomal CLint at 0.1 µM [21]: < 116 µL/min/mg; Activity [22]: Non-Toxic
CCC#CC[C@H](C)[C@H](O)/C=C/[C@H]1CCC(=O)N1CCCCCCC(=O)O	< 50%	Not Active	103%	Non-Toxic	Not Active	-0.07	0.558	6.06	< 5.00	4.91	Non-Toxic	Not Active	Non-Toxic	Non-Toxic	< 8.2 µL/min/10^6 cells	9.32	4.54	Non-Toxic	7.70	1.93 h	microsomal CLint at 0.1 µM [21]: < 116 µL/min/mg; Activity [22]: Non-Toxic
